Source: patent publication US9108960B2 (priority 2011, dated 2015)
In brackets after ≈: the same amount, converted by molar mass.

Experiments:
M. tuberculosis XDR-1 = experiment: Antimycobacterial assay, MIC by broth microdilution / Nitrate Reductase Assay; assay type: cell-based; details: Mycobacterium tuberculosis, XDR1, read-out: MIC M. tuberculosis XDR-1
M. tuberculosis H37Rv [1] = experiment: as above; assay type: cell-based; details: Mycobacterium tuberculosis, exposure period 3-4 days
M. tuberculosis Rif^R = experiment: as above; assay type: cell-based; details: Mycobacterium tuberculosis, read-out: MIC M. tuberculosis Rif^R
M. tuberculosis H37Rv [2] = details: literature values (footnote *); cited from earlier work

For `Cn1nc(C2CCN(c3ccc(NC(=O)c4ccc([N+](=O)[O-])o4)cc3F)CC2)oc1=O` [Compound 8f, N2-3-Fluoro-4-[4-(4-methyl-5-oxo-4,5-dihydro-1,3,4-oxadiazol-2-yl)piperidino]phenyl-5-nitro-2-furamide], the MIC (M. tuberculosis XDR-1) was 4 µg/mL (≈ 9.27 µM), the MIC (M. tuberculosis H37Rv [1]) was 1 µg/mL (≈ 2.32 µM) and the MIC (M. tuberculosis Rif^R) was 2 µg/mL (≈ 4.64 µM).
Work on `Cn1nc(C2CCN(c3ccc(NCc4ccc([N+](=O)[O-])o4)cc3F)CC2)oc1=O` [Compound 10f, 5-[1-(2-Fluoro-4-[(5-nitro-2-furyl)methyl]aminophenyl)-4-piperidyl]-3-methyl-2,3-dihydro-1,3,4-oxadiazol-2-one] yielded an MIC (M. tuberculosis XDR-1) of 16 µg/mL (≈ 38.3 µM), an MIC (M. tuberculosis H37Rv [1]) of 4 µg/mL (≈ 9.58 µM) and an MIC (M. tuberculosis Rif^R) of 8 µg/mL (≈ 19.2 µM).
For `O=c1oc(C2CCN(c3ccc(/N=C/c4ccc([N+](=O)[O-])o4)cc3)CC2)nn1Cc1ccccc1` [Compound 9d, 3-Benzyl-5-[1-(4-[(E)-1-(5-nitro-2-furyl)methylidene]aminophenyl)-4-piperidyl]-2,3-dihydro-1,3,4-oxadiazol-2-one], the MIC (M. tuberculosis XDR-1) was 8 µg/mL (≈ 16.9 µM), the MIC (M. tuberculosis H37Rv [1]) was 2 µg/mL (≈ 4.22 µM) and the MIC (M. tuberculosis Rif^R) was 4 µg/mL (≈ 8.45 µM).
`Cn1nc(C2CCN(c3ccc(/N=C/c4ccc([N+](=O)[O-])o4)cc3F)CC2)oc1=O` [Compound 9f, 5-[1-(2-Fluoro-4-[(E)-1-(5-nitro-2-furyl)methylidene]aminophenyl)-4-piperidyl]-3-methyl-2,3-dihydro-1,3,4-oxadiazol-2-one] gave an MIC (M. tuberculosis XDR-1) of 8 µg/mL (≈ 19.3 µM), an MIC (M. tuberculosis H37Rv [1]) of 2 µg/mL (≈ 4.81 µM) and an MIC (M. tuberculosis Rif^R) of 4 µg/mL (≈ 9.63 µM).
Work on `O=c1[nH]nc(C2CCN(c3ccc(NCc4ccc([N+](=O)[O-])o4)cc3F)CC2)o1` [Compound 10e, 5-[1-(2-Fluoro-4-[(5-nitro-2-furyl)methyl]aminophenyl)-4-piperidyl]-2,3-dihydro-1,3,4-oxadiazol-2-one] yielded an MIC (M. tuberculosis XDR-1) of 8 µg/mL (≈ 19.8 µM), an MIC (M. tuberculosis H37Rv [1]) of 2 µg/mL (≈ 4.96 µM) and an MIC (M. tuberculosis Rif^R) of 2 µg/mL (≈ 4.96 µM).
In the case of `O=c1oc(C2CCN(c3ccc(/N=C/c4ccc([N+](=O)[O-])o4)cc3F)CC2)nn1Cc1ccccc1` [Compound 9h, 3-Benzyl-5-[1-(2-fluoro-4-[(E)-1-(5-nitro-2-furyl)methylidene]aminophenyl)-4-piperidyl]-2,3-dihydro-1,3,4-oxadiazol-2-one], the MIC (M. tuberculosis XDR-1) is reported as 8 µg/mL (≈ 16.3 µM), the MIC (M. tuberculosis H37Rv [1]) is reported as 2 µg/mL (≈ 4.07 µM) and the MIC (M. tuberculosis Rif^R) is reported as 2 µg/mL (≈ 4.07 µM).
`O=c1[nH]nc(C2CCN(c3ccc(/N=C/c4ccc([N+](=O)[O-])o4)cc3F)CC2)o1` [Compound 9e, 5-[1-(2-Fluoro-4-[(E)-1-(5-nitro-2-furyl)methylidene]aminophenyl)-4-piperidyl]-2,3-dihydro-1,3,4-oxadiazol-2-one] gave an MIC (M. tuberculosis XDR-1) of 8 µg/mL (≈ 19.9 µM), an MIC (M. tuberculosis H37Rv [1]) of 2 µg/mL (≈ 4.98 µM) and an MIC (M. tuberculosis Rif^R) of 2 µg/mL (≈ 4.98 µM).
For `CC1CCCN(Cn2nc(-c3ccncc3)oc2=O)C1` (stereo not shown) [Compound 12a, 3-[(3-methylpiperidino)methyl]-5-(4-pyridyl)-2,3-dihydro-1,3,4-oxadiazol-2-one], the “MIC M. tuberculosis H37Rv” value (M. tuberculosis H37Rv [2]) is listed as 3.13 µg/mL (≈ 11.4 µM).
In the case of `CCn1nc(C2CCN(c3ccc(NC(=O)c4ccc([N+](=O)[O-])o4)cc3F)CC2)oc1=O` [Compound 8g, N2-4-[4-(4-Ethyl-5-oxo-4,5-dihydro-1,3,4-oxadiazol-2-yl)piperidino]-3-fluorophenyl-5-nitro-2-furamide], the MIC (M. tuberculosis XDR-1) is reported as 2 µg/mL (≈ 4.49 µM), the MIC (M. tuberculosis H37Rv [1]) is reported as 0.5 µg/mL (≈ 1.12 µM) and the MIC (M. tuberculosis Rif^R) is reported as 1 µg/mL (≈ 2.25 µM).
For `O=C(Nc1cccc(F)c1)c1ccc([N+](=O)[O-])o1` [Compound 11a, N2-(3-fluorophenyl)-5-nitro-2-furamide], the “MIC M. tuberculosis H37Rv” value (M. tuberculosis H37Rv [2]) is listed as 0.12 µg/mL (≈ 0.48 µM).
For `O=c1oc(-c2ccncc2)nn1CN1CCC(Cc2ccccc2)CC1` [Compound 12c, 3-[(4-benzylpiperidino)methyl]-5-(4-pyridyl)-2,3-dihydro-1,3,4-oxadiazol-2-one], the “MIC M. tuberculosis H37Rv” value (M. tuberculosis H37Rv [2]) is listed as 2.5 µg/mL (≈ 7.13 µM).
With `O=c1oc(C2CCN(c3ccc(NCc4ccc([N+](=O)[O-])o4)cc3F)CC2)nn1Cc1ccccc1` [Compound 10h, 3-Benzyl-5-[1-(2-fluoro-4-[(5-nitro-2-furyl)methyl]aminophenyl)-4-piperidyl]-2,3-dihydro-1,3,4-oxadiazol-2-one] the MIC (M. tuberculosis XDR-1) was 8 µg/mL (≈ 16.2 µM), the MIC (M. tuberculosis H37Rv [1]) was 2 µg/mL (≈ 4.05 µM) and the MIC (M. tuberculosis Rif^R) was 4 µg/mL (≈ 8.11 µM).
`O=C(Nc1ccc(N2CCC(c3n[nH]c(=O)o3)CC2)cc1)c1ccc([N+](=O)[O-])o1` [Compound 8a, N2-4-[4-(5-Oxo-4,5-dihydro-1,3,4-oxadiazol-2-yl)piperidino]phenyl-5-nitro-2-furamide] gave an MIC (M. tuberculosis XDR-1) of 4 µg/mL (≈ 10 µM), an MIC (M. tuberculosis H37Rv [1]) of 1 µg/mL (≈ 2.5 µM) and an MIC (M. tuberculosis Rif^R) of 1 µg/mL (≈ 2.5 µM).
In the case of `CCn1nc(C2CCN(c3ccc(NC(=O)c4ccc([N+](=O)[O-])o4)cc3)CC2)oc1=O` [Compound 8c, N2-4-[4-(4-Ethyl-5-oxo-4,5-dihydro-1,3,4-oxadiazol-2-yl)piperidino]phenyl-5-nitro-2-furamide], the MIC (M. tuberculosis XDR-1) is reported as 4 µg/mL (≈ 9.36 µM), the MIC (M. tuberculosis H37Rv [1]) is reported as 1 µg/mL (≈ 2.34 µM) and the MIC (M. tuberculosis Rif^R) is reported as 2 µg/mL (≈ 4.68 µM).
In the case of `Cn1nc(C2CCN(c3ccc(NCc4ccc([N+](=O)[O-])o4)cc3)CC2)oc1=O` [Compound 10b, 3-Methyl-5-[1-(4-[(5-nitro-2-furyl)methyl]aminophenyl)-4-piperidyl]-2,3-dihydro-1,3,4-oxadiazol-2-one], the MIC (M. tuberculosis XDR-1) is reported as 8 µg/mL (≈ 20 µM), the MIC (M. tuberculosis H37Rv [1]) is reported as 2 µg/mL (≈ 5.01 µM) and the MIC (M. tuberculosis Rif^R) is reported as 4 µg/mL (≈ 10 µM).
`NNC(=O)c1ccncc1` [Isoniazid, reference compound] showed an MIC (M. tuberculosis H37Rv [1]) of 2.5 µg/mL (≈ 18.2 µM).
For `CO[C@H]1/C=C/O[C@@]2(C)Oc3c(C)c(O)c4c(O)c(c(/C=N/N5CCN(C)CC5)c(O)c4c3C2=O)NC(=O)/C(C)=C\C=C\[C@H](C)[C@H](O)[C@@H](C)[C@@H](O)[C@@H](C)[C@H](OC(C)=O)[C@@H]1C` [Rifampicin, reference compound], the MIC (M. tuberculosis XDR-1) was 2 µg/mL (≈ 2.43 µM), the MIC (M. tuberculosis H37Rv [1]) was 0.5 µg/mL (≈ 0.608 µM) and the MIC (M. tuberculosis Rif^R) was > 128 µg/mL.
Work on `CCn1nc(C2CCN(c3ccc(/N=C/c4ccc([N+](=O)[O-])o4)cc3)CC2)oc1=O` [Compound 9c, 3-Ethyl-5-[1-(4-[(E)-1-(5-nitro-2-furyl)methylidene]aminophenyl)-4-piperidyl]-2,3-dihydro-1,3,4-oxadiazol-2-one] yielded an MIC (M. tuberculosis XDR-1) of 4 µg/mL (≈ 9.72 µM), an MIC (M. tuberculosis H37Rv [1]) of 1 µg/mL (≈ 2.43 µM) and an MIC (M. tuberculosis Rif^R) of 2 µg/mL (≈ 4.86 µM).
In the case of `O=c1oc(C2CCN(c3ccc(NCc4ccc([N+](=O)[O-])o4)cc3)CC2)nn1Cc1ccccc1` [Compound 10d, 3-Benzyl-5-[1-(4-[(5-nitro-2-furyl)methyl]aminophenyl)-4-piperidyl]-2,3-dihydro-1,3,4-oxadiazol-2-one], the MIC (M. tuberculosis XDR-1) is reported as 8 µg/mL (≈ 16.8 µM), the MIC (M. tuberculosis H37Rv [1]) is reported as 2 µg/mL (≈ 4.21 µM) and the MIC (M. tuberculosis Rif^R) is reported as 2 µg/mL (≈ 4.21 µM).
In the case of `CN1CCN(Cn2nc(-c3ccncc3)oc2=O)CC1` [Compound 12b, 3-[(4-methylpiperazino)methyl]-5-(4-pyridyl)-2,3-dihydro-1,3,4-oxadiazol-2-one], the “MIC M. tuberculosis H37Rv” value (M. tuberculosis H37Rv [2]) is listed as 1.25 µg/mL (≈ 4.54 µM).
For `O=C(Nc1ccc(N2CCC(Cc3ccccc3)CC2)cc1)c1ccc([N+](=O)[O-])o1` [Compound 11c, N2-[4-(4-benzylpiperidino)phenyl]-5-nitro-2-furamide], the “MIC M. tuberculosis H37Rv” value (M. tuberculosis H37Rv [2]) is given as 3.12 µg/mL (≈ 7.7 µM).
`O=C(Nc1ccc(N2CCC(c3n[nH]c(=O)o3)CC2)c(F)c1)c1ccc([N+](=O)[O-])o1` [Compound 8e, N2-3-Fluoro-4-[4-(5-oxo-4,5-dihydro-1,3,4-oxadiazol-2-yl)piperidino]phenyl-5-nitro-2-furamide] gave an MIC (M. tuberculosis XDR-1) of 8 µg/mL (≈ 19.2 µM), an MIC (M. tuberculosis H37Rv [1]) of 2 µg/mL (≈ 4.79 µM) and an MIC (M. tuberculosis Rif^R) of 2 µg/mL (≈ 4.79 µM).
With `CCn1nc(C2CCN(c3ccc(/N=C/c4ccc([N+](=O)[O-])o4)cc3F)CC2)oc1=O` [Compound 9g, 3-Ethyl-5-[1-(2-fluoro-4-[(E)-1-(5-nitro-2-furyl)methylidene]aminophenyl)-4-piperidyl]-2,3-dihydro-1,3,4-oxadiazol-2-one] the MIC (M. tuberculosis XDR-1) was 4 µg/mL (≈ 9.32 µM), the MIC (M. tuberculosis H37Rv [1]) was 1 µg/mL (≈ 2.33 µM) and the MIC (M. tuberculosis Rif^R) was 2 µg/mL (≈ 4.66 µM).
Work on `O=c1[nH]nc(C2CCN(c3ccc(/N=C/c4ccc([N+](=O)[O-])o4)cc3)CC2)o1` [Compound 9a, 5-[1-(4-[(E)-1-(5-Nitro-2-furyl)methylidene]aminophenyl)-4-piperidyl]-2,3-dihydro-1,3,4-oxadiazol-2-one] yielded an MIC (M. tuberculosis XDR-1) of 4 µg/mL (≈ 10.4 µM), an MIC (M. tuberculosis H37Rv [1]) of 2 µg/mL (≈ 5.22 µM) and an MIC (M. tuberculosis Rif^R) of 4 µg/mL (≈ 10.4 µM).
Molecule `CCn1nc(C2CCN(c3ccc(NCc4ccc([N+](=O)[O-])o4)cc3)CC2)oc1=O` [Compound 10c, 3-Ethyl-5-[1-(4-[(5-nitro-2-furyl)methyl]aminophenyl)-4-piperidyl]-2,3-dihydro-1,3,4-oxadiazol-2-one] has an MIC (M. tuberculosis XDR-1) of 4 µg/mL (≈ 9.68 µM), an MIC (M. tuberculosis H37Rv [1]) of 1 µg/mL (≈ 2.42 µM) and an MIC (M. tuberculosis Rif^R) of 1 µg/mL (≈ 2.42 µM).
In the case of `O=C(Nc1ccncc1)c1ccc([N+](=O)[O-])o1` [Compound 11b, N2-(4-pyridyl)-5-nitro-2-furamide], the “MIC M. tuberculosis H37Rv” value (M. tuberculosis H37Rv [2]) is listed as 0.8 µg/mL (≈ 3.43 µM).
`CCn1nc(C2CCN(c3ccc(NCc4ccc([N+](=O)[O-])o4)cc3F)CC2)oc1=O` [Compound 10g, 3-Ethyl-5-[1-(2-fluoro-4-[(5-nitro-2-furyl)methyl]aminophenyl)-4-piperidyl]-2,3-dihydro-1,3,4-oxadiazol-2-one] showed an MIC (M. tuberculosis XDR-1) of 4 µg/mL (≈ 9.27 µM), an MIC (M. tuberculosis H37Rv [1]) of 2 µg/mL (≈ 4.64 µM) and an MIC (M. tuberculosis Rif^R) of 4 µg/mL (≈ 9.27 µM).
With `O=c1[nH]nc(C2CCN(c3ccc(NCc4ccc([N+](=O)[O-])o4)cc3)CC2)o1` [Compound 10a, 5-[1-(4-[(5-Nitro-2-furyl)methyl]aminophenyl)-4-piperidyl]-2,3-dihydro-1,3,4-oxadiazol-2-one] the MIC (M. tuberculosis XDR-1) was 4 µg/mL (≈ 10.4 µM), the MIC (M. tuberculosis H37Rv [1]) was 1 µg/mL (≈ 2.59 µM) and the MIC (M. tuberculosis Rif^R) was 4 µg/mL (≈ 10.4 µM).
With `Cn1nc(C2CCN(c3ccc(/N=C/c4ccc([N+](=O)[O-])o4)cc3)CC2)oc1=O` [Compound 9b, 3-Methyl-5-[1-(4-[(E)-1-(5-nitro-2-furyl)methylidene]aminophenyl)-4-piperidyl]-2,3-dihydro-1,3,4-oxadiazol-2-one] the MIC (M. tuberculosis XDR-1) was 8 µg/mL (≈ 20.1 µM), the MIC (M. tuberculosis H37Rv [1]) was 2 µg/mL (≈ 5.03 µM) and the MIC (M. tuberculosis Rif^R) was 4 µg/mL (≈ 10.1 µM).
